According to patent publication EP0726261A1, “Herbidical 1,2,4 thiadiazoles” (American Cyanamid Company, priority 1995, dated 1996):

How the values were obtained:
Assay type in all cases: in vivo
Triticum aestivum [1] = test: Preemergence herbicidal activity (Example 67); design: herbicide rating, TRZAW: scale not given here; conditions: pre; 800 g/ha; rated about 1-3 weeks after treatment
Summary of the method: (§1)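 Cups filled with a horticultural substrate (peat, volcanic clay, bark residues, polyamide) mixed 1:3 with loamy sand were sprayed on the soil surface with compound at 800g/ha. Plants were then grown on greenhouse benches and evaluated roughly 1-3 weeks later.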

Hordeum vulgare [2] = test: Preemergence herbicidal activity (Example 67); design: herbicide rating, HORVW: scale not given here; conditions: pre; 800 g/ha; rated about 1-3 weeks after treatment
Summary of the method: as §1

Alopecurus myosuroides [3] = test: Preemergence herbicidal activity (Example 67); design: herbicide rating, ALOMY: scale not given here; conditions: pre; 800 g/ha; rated about 1-3 weeks after treatment
Summary of the method: as §1

Setaria viridis [4] = test: Preemergence herbicidal activity (Example 67); design: herbicide rating, SETVI: scale not given here; conditions: pre; 800 g/ha; rated about 1-3 weeks after treatment
Summary of the method: as §1

Abutilon theophrasti [5] = test: Preemergence herbicidal activity (Example 67); conditions: pre; 800 g/ha; rated about 1-3 weeks after treatment
Summary of the method: as §1

Amaranthus retroflexus [6] = test: Preemergence herbicidal activity (Example 67); conditions: pre; 800 g/ha; rated about 1-3 weeks after treatment
Summary of the method: as §1

Chenopodium album [7] = test: Preemergence herbicidal activity (Example 67); conditions: pre; 800 g/ha; rated about 1-3 weeks after treatment
Summary of the method: as §1

Galium aparine [8] = test: Preemergence herbicidal activity (Example 67); conditions: pre; 800 g/ha; rated about 1-3 weeks after treatment
Summary of the method: as §1

Helianthus annuus [9] = test: Preemergence herbicidal activity (Example 67); conditions: pre; 800 g/ha; rated about 1-3 weeks after treatment
Summary of the method: as §1

Ipomoea hederacea [10] = test: Preemergence herbicidal activity (Example 67); conditions: pre; 800 g/ha; rated about 1-3 weeks after treatment
Summary of the method: as §1

Veronica persica [11] = test: Preemergence herbicidal activity (Example 67); conditions: pre; 800 g/ha; rated about 1-3 weeks after treatment
Summary of the method: as §1

Zea mays [12] = test: Preemergence herbicidal activity (Example 67); conditions: pre; 800 g/ha; rated about 1-3 weeks after treatment
Summary of the method: as §1

Abutilon theophrasti [13] = test: Postemergence herbicidal activity (Example 67); conditions: pos; 800 g/ha; rated after 10-21 days
Summary of the method: (§2)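 Test compound is dissolved in acetone with 0.5% TRITON X-155 and diluted with water. It is then sprayed at 800g/ha (400 L/ha, 3 bar) onto 3-6 week old plants. The plants are kept in the greenhouse and rated after 10-21 days.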

Alopecurus myosuroides [14] = test: Postemergence herbicidal activity (Example 67); conditions: pos; 800 g/ha; rated after 10-21 days
Summary of the method: as §2

Amaranthus retroflexus [15] = test: Postemergence herbicidal activity (Example 67); conditions: pos; 800 g/ha; rated after 10-21 days
Summary of the method: as §2

Chenopodium album [16] = test: Postemergence herbicidal activity (Example 67); conditions: pos; 800 g/ha; rated after 10-21 days
Summary of the method: as §2

Galium aparine [17] = test: Postemergence herbicidal activity (Example 67); conditions: pos; 800 g/ha; rated after 10-21 days
Summary of the method: as §2

Helianthus annuus [18] = test: Postemergence herbicidal activity (Example 67); conditions: pos; 800 g/ha; rated after 10-21 days
Summary of the method: as §2

Hordeum vulgare [19] = test: Postemergence herbicidal activity (Example 67); conditions: pos; 800 g/ha; rated after 10-21 days
Summary of the method: as §2

Ipomoea hederacea [20] = test: Postemergence herbicidal activity (Example 67); conditions: pos; 800 g/ha; rated after 10-21 days
Summary of the method: as §2

Setaria viridis [21] = test: Postemergence herbicidal activity (Example 67); conditions: pos; 800 g/ha; rated after 10-21 days
Summary of the method: as §2

Triticum aestivum [22] = test: Postemergence herbicidal activity (Example 67); conditions: pos; 800 g/ha; rated after 10-21 days
Summary of the method: as §2

Veronica persica [23] = test: Postemergence herbicidal activity (Example 67); conditions: pos; 800 g/ha; rated after 10-21 days
Summary of the method: as §2

Zea mays [24] = test: Postemergence herbicidal activity (Example 67); conditions: pos; 800 g/ha; rated after 10-21 days
Summary of the method: as §2

| Structure (SMILES) | herbicide rating, TRZAW (Triticum aestivum [1]) | herbicide rating, HORVW (Hordeum vulgare [2]) | herbicide rating, ALOMY (Alopecurus myosuroides [3]) | herbicide rating, SETVI (Setaria viridis [4]) | herbicide rating, ABUTH (Abutilon theophrasti [5]) | herbicide rating, AMARE (Amaranthus retroflexus [6]) | herbicide rating, CHEAL (Chenopodium album [7]) | herbicide rating, GALAP (Galium aparine [8]) | herbicide rating, HELAN (Helianthus annuus [9]) | herbicide rating, IPOHE (Ipomoea hederacea [10]) | herbicide rating, VERPE (Veronica persica [11]) | herbicide rating, ZEAMX (Zea mays [12]) | herbicide rating, ABUTH (Abutilon theophrasti [13]) | herbicide rating, ALOMY (Alopecurus myosuroides [14]) | herbicide rating, AMARE (Amaranthus retroflexus [15]) | herbicide rating, CHEAL (Chenopodium album [16]) | herbicide rating, GALAP (Galium aparine [17]) | herbicide rating, HELAN (Helianthus annuus [18]) | herbicide rating, HORVW (Hordeum vulgare [19]) | herbicide rating, IPOHE (Ipomoea hederacea [20]) | further results |
| --- | --- | --- | --- | --- | --- | --- | --- | --- | --- | --- | --- | --- | --- | --- | --- | --- | --- | --- | --- | --- | --- |
| C[C@H](NC(=O)c1nc(C=Cc2ccccc2)ns1)c1ccccc1 [Example 30] | 0 | 0 | 0 | 0 | 2 (6-15%) | 0 | 0 | 0 | 0 | 0 | 0 | 0 | 3 (16-29%) | 1 (1-5%) | 2 (6-15%) | 4 (30-44%) | 4 (30-44%) | 2 (6-15%) | 0 | 4 (30-44%) | herbicide rating, SETVI (Setaria viridis [21]): 3 (16-29%); herbicide rating, TRZAW (Triticum aestivum [22]): 2 (6-15%); herbicide rating, VERPE (Veronica persica [23]): 0; herbicide rating, ZEAMX (Zea mays [24]): 0 |
| CCCCc1nsc(C(=O)NCc2cccs2)n1 [Example 31] | 0 | 0 | 0 | 0 | 0 | 0 | 0 | 0 | 0 | 0 | 0 | 0 | 1 (1-5%) | 2 (6-15%) | 0 | 4 (30-44%) | 2 (6-15%) | 2 (6-15%) | 0 | 3 (16-29%) | herbicide rating, SETVI (Setaria viridis [21]): 4 (30-44%); herbicide rating, TRZAW (Triticum aestivum [22]): 2 (6-15%); herbicide rating, VERPE (Veronica persica [23]): 0; herbicide rating, ZEAMX (Zea mays [24]): 1 (1-5%) |
| CCCCc1nsc(C(=O)N[C@@H](C)c2ccccc2)n1 [Example 32] | 0 | 0 | 0 | 0 | 0 | 0 | 5 (45-64%) | 0 | 0 | 0 | 5 (45-64%) | 0 | 5 (45-64%) | 2 (6-15%) | 3 (16-29%) | 5 (45-64%) | 6 (65-79%) | 5 (45-64%) | 2 (6-15%) | 5 (45-64%) | herbicide rating, SETVI (Setaria viridis [21]): 7 (80-90%); herbicide rating, TRZAW (Triticum aestivum [22]): 3 (16-29%); herbicide rating, VERPE (Veronica persica [23]): 0; herbicide rating, ZEAMX (Zea mays [24]): 0 |
| COCCc1nsc(C(=O)N[C@@H](C)c2ccccc2)n1 [Example 34] | 0 | 0 | 0 | 0 | 0 | 0 | 0 | 0 | 0 | 0 | 3 (16-29%) | 0 | 1 (1-5%) | 3 (16-29%) | 0 | 2 (6-15%) | 1 (1-5%) | 2 (6-15%) | 0 | 4 (30-44%) | herbicide rating, SETVI (Setaria viridis [21]): 3 (16-29%); herbicide rating, TRZAW (Triticum aestivum [22]): 3 (16-29%); herbicide rating, VERPE (Veronica persica [23]): 2 (6-15%); herbicide rating, ZEAMX (Zea mays [24]): 0 |
